Source: patent publication US11090304B2 (Amgen Inc., priority 2018, dated 2021)
Where two headings read alike, the source gives them in different places.

Columns and labels:
[1] = biological target: GDP-bound KRAS protein (aa 1-169), containing both G12C and C118A amino acid substitutions (Homo sapiens, UniProt P01116, C118A/G12C); experiment: Coupled nucleotide exchange assay (SOS-mediated, AlphaScreen); assay type: biochemical
[2] = tested on: Phosphorylation of ERK1/2 in MIA PaCa-2 cells; experiment: Phospho-ERK1/2 MSD assay in MIA PaCa-2 cells; assay type: cell-based
Summary of the method: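 MIA PaCa-2 or A549 cells were treated with a compound dose-response titration for 2 or 4 h at 37 °C, then stimulated with 10 ng/mL EGF for 10 min. Phospho-ERK1/2 in RIPA lysates was measured by MSD whole-cell lysate immunoassay, and IC50 came from a 4-parameter logistic fit.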

[3] = Homo sapiens, MIA PaCa-2, 2 h, read-out: p-ERK IC50 (2 h; MIA PaCa-2), 2 h compound treatment
[4] = read-out: p-ERK IC50 (2 h; MIA PaCa-2), 2 h compound treatment

Chain of GDP-bound KRAS protein (aa 1-169), containing both G12C and C118A amino acid substitutions (P01116 1-169 isoform P01116-2 G12C/C118A): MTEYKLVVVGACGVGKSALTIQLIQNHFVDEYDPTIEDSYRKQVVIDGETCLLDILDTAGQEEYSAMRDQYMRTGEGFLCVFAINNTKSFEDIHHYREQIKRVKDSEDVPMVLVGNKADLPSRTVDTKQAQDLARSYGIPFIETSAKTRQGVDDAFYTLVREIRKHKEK

Structure (SMILES)	Coupled exchange IC50 (5 min) ([1]; 5 min compound pre-incubation)	IC50 [2, 3] [nM]	also measured
C=CC(=O)N1CCN(c2nc(=O)n(-c3n[nH]cc3C(C)C)c3nc(-c4ccccc4F)c(Cl)cc23)[C@@H](C)C1 [Example 54-111, 6-chloro-7-(2-fluorophenyl)-4-((2S)-2-methyl-4-(2-propenoyl)-1-piperazinyl)-1-(4-(2-propanyl)-1H-pyrazol-3-yl)pyrido[2,3-d]pyrimidin-2(1H)-one]	0.417 | nda μM	791	–
C=CC(=O)N1CCN(c2nc(=O)n(-c3ncccc3C(C)C)c3nc(-c4ccccc4F)c(F)cc23)[C@@H](C)C1 [Example 57-9, 6-fluoro-7-(2-fluorophenyl)-4-((2S)-2-methyl-4-(2-propenoyl)-1-piperazinyl)-1-(3-(2-propanyl)-2-pyridinyl)pyrido[2.3-d]pyrimidin-2(1H)-one]	0.752 | nda μM	239	–
C=CC(=O)N1CCN(c2nc(=O)n(-c3ccccc3C(C)C)c3nc(-c4ccc(F)cc4F)c(Cl)cc23)[C@@H](C)C1 (single isomer, unassigned) [Example 54-85-1]	3.4 | nda μM	–	IC50 [2, 4]: 1510 nM
C=CC(=O)N1CCN(c2nc(=O)n(-c3c(C)cnn3C(C)(C)C)c3nc(-c4ccccc4F)c(Cl)cc23)[C@@H](C)C1 (single isomer, unassigned) [Example 55-38-2]	0.133 | nda μM	108	–
C=CC(=O)N1CCN(c2nc(=O)n(-c3c(C)cccc3CC)c3nc(-c4ccccc4F)c(Cl)cc23)[C@@H](C)C1 (single isomer, unassigned) [Example 55-9-1]	0.804 | nda μM	–	IC50 [2, 4]: 1350 nM
C=CC(=O)N1CCN(c2nc(=O)n(-c3cncnc3C3(C)CC3)c3nc(-c4c(O)cccc4F)c(Cl)cc23)[C@@H](C)C1 [Example 54-55, 6-chloro-7-(2-fluoro-6-hydroxyphenyl)-1-(4-(1-methyl-cyclopropyl)-5-pyrimidinyl)-4-((2S)-2-methyl-4-(2-propenoyl)-1-piperazinyl) pyrido[2,3-d]pyrimidin-2(1H)-one]	0.133 | nda μM	578	–
C=CC(=O)N1CCN(c2nc(=O)n(-c3ccccc3C(C)C)c3c(C)c(-c4c(O)cccc4F)c(Cl)cc23)[C@@H](C)C1 (single isomer, unassigned) [Example 90-2]	0.151 µM	–	Coupled exchange IC50 (2 h) ([1]; 2 h compound pre-incubation): 0.175 µM; IC50 ([2]; read-out: p-ERK IC50 (4 h; MIA PaCa-2), 4 h compound treatment): 111 nM
C=CC(=O)N1CCN(c2nc(=O)n(-c3ccccc3C(C)C)c3nc(-c4cc(N)ccc4Br)c(Cl)cc23)[C@@H](C)C1 [Example 56-6, 7-(5-amino-2-bromophenyl)-6-chloro-4-((2S)-2-methyl-4-(2-propenoyl)-1-piperazinyl)-1-(2-(2-propanyl)phenyl)pyrido[2,3-d]pyrimidin-2(1H)-one]	0.125 | nda μM	84	–
C=CC(=O)N1CCN(c2nc(=O)n(-c3c(C(C)C)ncnc3C(C)C)c3nc(-c4ccc(F)cc4N)c(Cl)cc23)[C@@H](C)C1 [Example 87-5, 7-(2-amino-4-fluoropheny-1)-6-chloro-1-(4,6-di(2-propanyl)-5-pyrimidinyl)-4-((2S)-2-methyl-4-(2-propenoyl)-1-piperazinyl)pyrido[2,3-d]pyrimidin-2(1H)-one]	0.251 | nda μM	181	–
C=CC(=O)N1CCN(c2nc(=O)n(-c3c(C)ccnc3C(C)C)c3nc(-c4ccccc4F)c(F)cc23)[C@@H](C)C1 (single isomer, unassigned) [Example 58-4-1]	0.212 | nda μM	114	–
C=CC(=O)N1CCN(c2nc(=O)n(-c3ccccc3CC)c3nc(-c4c(O)cccc4F)c(Cl)cc23)[C@@H](C)C1 [Example 54-34, 6-chloro-1-(2-ethylphenyl)-7-(2-fluoro-6-hydroxyphenyl)-4-((2S)-2-methyl-4-(2-propenoyl)-1-piperazinyl) pyrido[2,3-d]pyrimidin-2(1H)-one]	0.325 | nda μM	97	–
C=CC(=O)N1CCN(c2nc(=O)n(-c3c(C)ncnc3C3CC3)c3nc(-c4ccccc4F)c(Cl)cc23)[C@@H](C)C1 [Example 60-30, 6-chloro-1-(4-cyclopropyl-6-methyl-5-pyrimidinyl)-7-(2-fluorophenyl)-4-((2S)-2-methyl-4-(2-propenoyl)-1-piperazinyl)pyrido[2,3-d]pyrimidin-2(1H)-one]	0.218 | nda μM	200	–
C=CC(=O)N1CCN(c2nc(=O)n(-c3ccccc3C(C)(C)C)c3nc(-c4ccccc4F)c(F)cc23)[C@@H](C)C1 (single isomer, unassigned) [Example 58-17-2]	0.849 | nda μM	672	–
C=CC(=O)N1CCN(c2nc(=O)n(-c3ccccc3C(C)C)c3nc(-c4cc(OC)ccc4Cl)c(Cl)cc23)[C@@H](C)C1 [Example 54-89, 6-chloro-7-(2-chloro-5-methoxy-phenyl)-4-((2S)-2-methyl-4-(2-propenoyl)-1-piperazinyl)-1-(2-(2-propanyl)phenyl)pyrido [2,3-d]pyrimidin-2(1H)-one]	0.271 | nda μM	212	–
C=CC(=O)N1CCN(c2nc(=O)n(-c3c(C)ccnc3C(C)C)c3nc(-c4ccccc4F)c(Cl)cc23)C[C@H]1C (atropisomer, axis not shown; (M)) [Example 78-1, (M)-6-Chloro-7-(2-fluorophenyl)-1-(4-methyl-2-(2-propanyl)-3-pyridinyl)-4-((3R)-3-methyl-4-(2-propenoyl)-1-piperazinyl)pyrido[2,3-d]pyrimidin-2(1H)-one]	–	–	IC50 ([1]; read-out: Coupled exchange IC50 (5 min), 5 min compound pre-incubation): 213 nM; IC50 [2, 4]: 49 nM
C=CC(=O)N1CCN(c2nc(=O)n(-c3c[nH]nc3C3CC3)c3nc(-c4c(O)cccc4F)c(Cl)cc23)[C@@H](C)C1 [Example 55-21, 6-chloro-1-(3-cyclopropyl-1H-pyrazol-4-yl)-7-(2-fluoro-6-hydroxyphenyl)-4-((2S)-2-methyl-4-(2-propenoyl)-1-piperazinyl)pyrido[2,3-d]pyrimidin-2(1H)-one]	0.444 | nda μM	≥ 10000	–
C=CC(=O)N1CCN(c2nc(=O)n(-c3c(C)ccnc3N(C)C)c3nc(-c4ccccc4F)c(Cl)cc23)[C@@H](C)C1 (single isomer, unassigned) [Example 55-7-2]	0.325 | nda μM	587	–
C=CC(=O)N1C[C@H](C)N(c2nc(=O)n(-c3c(C)ccnc3C(C)C)c3nc(-c4c(O)cccc4F)c(Cl)cc23)[C@@H](C)C1 (atropisomer, axis not shown; (M)) [Example 73-16, (M)-6-chloro-4-((2S,6S)-2,6-dimethyl-4-(2-propenoyl)-1-piperazinyl)-7-(2-fluoro-6-hydroxyphenyl)-1-(4-methyl-2-(2-propanyl)-3-pyridinyl)pyrido[2,3-d]pyrimidin-2(1H)-one]	0.019 | nda μM	7	–
C=CC(=O)N1CCN(c2nc(=O)n(-c3c(C(C)C)ncnc3C(C)C)c3nc(-c4c(O)cccc4F)c(F)cc23)[C@@H](C)C1 [Example 57-4, 1-(4,6-di(2-propanyl)-5-pyrimidinyl)-6-fluoro-7-(2-fluoro-6-hydroxyphenyl)-4-((2S)-2-methyl-4-(2-propenoyl)-1-piperazinyl)pyrido[2,3-d]pyrimidin-2(1H)-one]	0.1 | nda μM	61	–
C=CC(=O)N1CCN(c2cc(=O)n(-c3ccccc3C(C)C)c3nc(-c4ccccc4F)c(Cl)cc23)[C@@H](C)C1 [Example 126, 6-Chloro-7-(2-fluorophenyl)-4-((2S)-2-methyl-4-(2-propenoyl)-1-piperazinyl)-1-(2-(2-propanyl)phenyl)-1,8-naphthyridin-2(1H)-one]	2.05 | nda μM	1720	–
C=CC(=O)N1CCN(c2nc(=O)n(-c3cncnc3C(C)(C)C)c3nc(-c4ccccc4F)c(Cl)cc23)[C@@H](C)C1 [Example 54-110, 6-chloro-7-(2-fluorophenyl)-1-(4-(2-methyl-2-propanyl)-5-pyrimidinyl)-4-((2S)-2-methyl-4-(2-propenoyl)-1-piperazinyl) pyrido[2,3-d]pyrimidin-2(1H)-one]	0.404 | nda μM	408	–
C=CC(=O)N1CCN(c2nc(=O)n(-c3c(OC)ncnc3C(C)C)c3nc(-c4ccccc4F)c(Cl)cc23)[C@@H](C)C1 (single isomer, unassigned) [Example 54-107-2]	0.067 | nda μM	48	–
C=CC(=O)N1CCN(c2nc(=O)n(-c3c(C(C)C)n[nH]c3C(C)C)c3nc(-c4ccccc4F)c(Cl)cc23)[C@@H](C)C1 [Example 54-72, 6-chloro-1-(3,5-di(2-propanyl)-1H-pyrazol-4-yl)-7-(2-fluorophenyl)-4-((2S)-2-methyl-4-(2-propenoyl)-1-piperazinyl) pyrido[2,3-d]pyrimidin-2(1H)-one]	0.108 | nda μM	183	–
C=CC(=O)N1CCN(c2nc(=O)n(-c3c(C)ccnc3CC)c3nc(-c4c(O)cccc4F)c(F)cc23)[C@@H](C)C1 [Example 57-1, 1-(2-Ethyl-4-methyl-3-pyridinyl)-6-fluoro-7-(2-fluoro-6-hydroxyphenyl)-4-((2S)-2-methyl-4-(2-propenoyl)-1-piperazinyl)pyrido[2,3-d]pyrimidin-2(1H)-one]	0.835 | nda μM	171	–
